Measured values taken from US11103526B2, “Methods for treatment using small molecule potassium-sparing diuretics and natriuretics” (University of Pittsburgh—Of the Commonwealth System of …, priority 2016, dated 2021).

Experiments:
[1] = tested on: anesthetized rats; experiment: Acute cardiovascular and renal effects of an intravenous bolus in anesthetized rats (Example 1); format: in vivo, male Sprague-Dawley rats; conditions: 33.5 μmoles/kg intravenous bolus; for urine volume increase: Period 3 (85-115 min) compared with Period 1 (0-30 min); for glucose excretion increase / potassium excretion decrease / sodium excretion increase: Period 3 compared with Period 1
Experimental: Animals. This study employed male Sprague-Dawley rats (Charles River; Wilmington, Mass.) that were approximately 16 weeks old. The Institutional Animal Care and Use Committee approved all procedures.
The rats were anesthetized with Inactin (90 mg/kg, i.p.) and placed on an isothermal pad, and body temperature was monitored with a rectal probe thermometer and maintained at 37° C. with a heat lamp. […] A PE-50 cannula was inserted into the jugular vein, and an infusion of 0.9% saline at 25 μl/min was initiated. A PE-10 tubing was placed in the left ureter for urine collection. […] The dose was selected based on preliminary experiments with 8-aminoguanosine. […] Each group of rats (n of at least 6) received only one treatment. Ten minutes after the test agents were administered, urine was collected for another 30 minutes (Period 2: […] into the protocol).
Statistics. Absolute values are presented as the mean±SEM. Fold-increases were calculated as follows: Period 3 value÷Period 1 value. Statistical analyses were performed using analysis of variance (ANOVA) followed by Fisher's Least Significant Difference (LSD) test if the overall effects or interactions in the ANOVA were significant. P<0.05 was considered statistically significant.

[2] = tested on: obese Zucker Diabetic Sprague Dawley rats (ZDSD); experiment: Long-term MABP in obese Zucker Diabetic Sprague Dawley rats; format: in vivo; conditions: 10 mg/kg/day in drinking water; also with 1% salt and diabetogenic diet
Source text: This example describes the long-term effects of 8-aminoguanine (FIG. 14A) and 8-aminoguanosine (FIG. 14B) on mean arterial blood pressure (MABP) in obese Zucker Diabetic Sprague Dawley rats (ZDSD). Obese ZDSD are a recently developed model (developed by PreClinOmics) of metabolic syndrome that have a mild elevation of MABP and have dyslipidemia, diabetes, and obesity. All animals were instrumented for long-term measurement of MABP by radiotelemetry as previously described (Jackson E K et al., Hypertension, 65:238-249, 2015). Group 1 ZDSD received only normal drinking water, whereas Group 2 received normal drinking water for 7 days and then were provided drinking water containing 8-aminoguanine or 8-aminoguanosine (10 mg/kg/day) for the remainder of the study. The experiment was divided into three phases (indicated by the boxes). During phase 1, no other treatments were provided. During phase 2, all animals received 1% salt (NaCl) in their drinking water. During phase 3, all animals were provided (in addition to 1% salt in the drinking water) a diabetogenic diet to worsen diabetes. The numbers in each box are the average MABP in Group 2 versus Group 1 during the time period indicated by the box. P-values comparing Group 2 versus Group 1 during each phase of the experiment are also provided.

[3] = tested on: Dahl SS; experiment: MRI analysis of strokes in Dahl SS; format: in vivo, Dahl salt-sensitive rats; conditions: 8% salt diet, 10 mg/kg/day in drinking water, after 40 days
Source text: This example describes an MRI analysis of strokes in Dahl SS (FIG. 16). Six-week-old Dahl SS were purchased from Charles River. When animals arrived, they were divided into 4 groups. Group A is the normal control group in which the Dahl SS were maintained on a 0.3% salt diet for the entire study. Group B is the positive control group in which the Dahl SS were maintained on an 8% salt diet for the entire study. Group C is the 8-aminoguanosine group in which Dahl SS were maintained on an 8% salt diet with 10 mg/kg/day of 8-aminoguanosine in their drinking water for the entire study. Group D is the 8-aminoguanine group in which the Dahl SS were maintained on an 8% salt diet with 10 mg/kg/day of 8-aminoguanine in their drinking water for the entire study. After 40 days of treatment, the rats were transported to an MRI facility for T2-weighted MRI of the brain.

[4] = tested on: obese ZDSD (metabolic syndrome); experiment: Glycated hemoglobin (HbA1C) in obese ZDSD at end of diabetogenic diet; format: in vivo, Zucker Diabetic Sprague Dawley rats; conditions: chronic treatment 10 mg/kg/day
Source text: This example describes the long-term effects of 8-aminoguanine on (FIG. 18) on glycated hemoglobin (HbA1C) levels in blood from rats with the metabolic syndrome (i.e., obese ZDSD) at the end of a diabetogenic diet. Obese ZDSD are a recently developed model (developed by PreClinOmics) of metabolic syndrome that have a mild elevation of MABP and have dyslipidemia, diabetes, and obesity.

[5] = tested on: anesthetized rats; experiment: Protocol 3: intrarenal artery infusion, ipsilateral versus contralateral kidney (Example 13); format: in vivo, male Sprague-Dawley rats; conditions: for MABP / renal blood flow (RBF) / urinary excretion of glucose, ipsilateral versus contralateral kidney / urinary excretion of potassium, ipsilateral versus contralateral kidney / urinary excretion of sodium, ipsilateral versus contralateral kidney / urine volume, ipsilateral versus contralateral kidney: intrarenal artery infusion 0.1, 0.3 and 1 μmoles/kg/min; for urinary excretion of glucose, ipsilateral versus contralateral kidney / urinary excretion of potassium, ipsilateral versus contralateral kidney / urinary excretion of sodium, ipsilateral versus contralateral kidney / urine volume, ipsilateral versus contralateral kidney: same time period
Experimental: Protocol 3. Rats were prepared similar to the Protocol 1 description, but with a few additions. For this protocol, PE-10 cannulas were inserted into both the left and right ureters for simultaneous urine collection from both kidneys. A 1 mm transit-time flow probe was also positioned on the left renal artery and connected to a flowmeter (model T-206, Transonic Systems, Inc., Ithaca, N.Y.) to continuously measure renal blood flow (RBF). As placing a flow probe on left renal artery partially denervates the kidney, both kidneys were denervated to ensure similar conditions for both kidneys. Finally, a 30-gauge needle was inserted into the lumen of the left renal artery, and an infusion of 0.9% saline at 50 μl/min was initiated.
After stabilization for one hour, urine was collected from both kidneys for 15 minutes (for urine volume, sodium, potassium, and glucose), and MABP as well as HR were time averaged during this period. In addition, RBF was recorded 5, 10, and 15 minutes into the 15-minute urine collection period and averaged. Next, the rats received an infusion into the left renal artery of 8-aminoguanine or 8-aminoguanosine at 0.1 μmoles/kg/min and 50 μl/min or of vehicle at 50 μl/min. After 10 minutes, urine was again collected for 15 minutes, and all measurements were repeated. In rats receiving 8-aminoguanine or 8-aminoguanosine, the dose of these compounds was increased to 0.3 μmoles/kg/min. After 10 minutes, urine was again collected for 15 minutes, and all measurements were repeated. The procedure was repeated once more after the dose of 8-aminoguanosine or 8-aminoguanine was increased to 1 μmole/kg/min. Sodium, potassium, and glucose were measured in all urine samples as described in Protocol 1.
Increasing doses (0, 0.1, 0.3, and 1.0 μmoles/kg/min) of 8-aminoguanosine and 8-aminoguanine were infused into the left renal artery of anesthetized rats, while MABP and RBF were monitored. The urine volume and urinary excretion of sodium, potassium, and glucose were also measured from both the infused (treated; ipsilateral) and non-infused (within animal control; contralateral) kidneys. A control group was also included with the vehicle alone infused into the left kidney.

SMILES	effect on heart rate (HR) [1]	effect on mean arterial blood pressure (MABP) [1]	effect on mesenteric blood flow (MBF) [1]	effect on renal blood flow (RBF) [1]	urine volume increase [1] [fold]	glucose excretion increase [1] [fold]	potassium excretion decrease [1] [%]	sodium excretion increase [1] [fold]	MABP in metabolic syndrome (obese ZDSD) [2]	stroke detected by T2-weighted MRI of the brain [3]	glycated hemoglobin (HbA1C) levels in blood [4]	MABP [5]	renal blood flow (RBF) [5]	urinary excretion of glucose, ipsilateral versus contralateral kidney [5]	urinary excretion of potassium, ipsilateral versus contralateral kidney [5]	urinary excretion of sodium, ipsilateral versus contralateral kidney [5]	urine volume, ipsilateral versus contralateral kidney [5]	urine, sodium, and glucose excretion by the contralateral kidney ([5]; intrarenal artery infusion at 1 μmole/kg/min, compared with the basal level)	excretion of urine, sodium, or glucose by the contralateral kidney ([5]; intrarenal artery infusion at 0.1 and 0.3 μmoles/kg/min)
Nc1nc2c(nc(N)n2[C@@H]2O[C@H](CO)[C@@H](O)[C@H]2O)c(=O)[nH]1 [8-aminoguanosine, 8-Aminoguanosine]	did not affect	did not affect	modestly increased	decreased	4.2	12.1	69.1	26.6	decrease MABP	protect against strokes	significantly lowered	did not affect	did not affect	no significant differences	significantly lower	no significant differences	no significant differences	–	–
Nc1nc2[nH]c(N)nc2c(=O)[nH]1 [8-aminoguanine, 8-Aminoguanine]	did not affect	did not affect	did not affect	did not affect	3.6	12.2	71.0	17.2	decrease MABP	protect against strokes	dramatic anti-diabetic effect	did not affect	did not affect	significantly higher	did not differ significantly	significantly higher	significantly higher	slightly increased	no effect
